Data published in DBAASP.
Converted amounts (≈) assume the structure as drawn. “And” between values parts separate entries of the source, which are not always exact repeats. Equal entries are not always repeated. Values belong to the compound of their own block, whether it stands above or below them.

What was measured:
Test in all cases: ≥ marks a high value that may be exact or a test limit, other limits are often not marked, values filed in µg/mL are converted to µM
[1] = system: Candida albicans ATCC 2002
[2] = system: Escherichia coli ATCC 25922
[3] = system: Staphylococcus aureus ATCC 2592
Staphylococcus aureus = system: Staphylococcus aureus
Bacillus subtilis = system: Bacillus subtilis
Candida albicans = system: Candida albicans
Escherichia coli = system: Escherichia coli
[4] = system: Pseudomonas aeruginosa ATCC 27853
[5] = system: Staphylococcus aureus ATCC 25923
[6] = system: Escherichia coli DH5alpha
[7] = system: Klebsiella pneumoniae ATCC 13883
[8] = system: Salmonella enterica subsp. enterica serovar Typhimurium ATCC 14028
[9] = system: Enterococcus faecalis ATCC 29212
Pseudomonas aeruginosa = system: Pseudomonas aeruginosa
Escherichia coli B = system: Escherichia coli B
Bacillus subtilis 168 = system: Bacillus subtilis 168
Klebsiella pneumoniae = system: Klebsiella pneumoniae
Acinetobacter baumannii = system: Acinetobacter baumannii
[10] = system: Acinetobacter baumannii ATCC 19606
[11] = system: Staphylococcus aureus ATCC 29213
[12] = system: Salmonella enterica subsp. enterica serovar Typhimurium C77-31
[13] = system: Staphylococcus epidermidis ATCC 12228
Escherichia coli UB1005 = system: Escherichia coli UB1005

MIC [1]: 8.21 µM (≈ 12.5 µg/mL) | MIC [2]: 19.7 µM (≈ 30 µg/mL) | MIC [3]: 6.57 µM (≈ 9.99 µg/mL)
Compound: CC[C@H](C)[C@H](NC(=O)[C@H](CC(C)C)NC(=O)[C@@H](N)Cc1ccccc1)C(=O)N[C@H](C(=O)N[C@@H](CCCN=C(N)N)C(=O)N[C@@H](CCCN=C(N)N)C(=O)N1CCC[C@H]1C(=O)N[C@H](C(=O)N[C@H](C(=O)N[C@@H](CC(C)C)C(=O)NCC(=O)N[C@@H](CC(C)C)C(=O)N[C@@H](CC(C)C)C(N)=O)C(C)C)[C@@H](C)CC)[C@@H](C)CC [FLIIRRPIVLGLL]

MIC (Staphylococcus aureus): 5.9 µM (≈ 9.36 µg/mL) | MIC (Bacillus subtilis): 23.6 µM (≈ 37.5 µg/mL) | MIC (Candida albicans): 0.693 µM (≈ 1.1 µg/mL) | MIC (Escherichia coli): 2.95 µM (≈ 4.67 µg/mL)
Compound: CC[C@H](C)[C@H](NC(=O)[C@@H]1CCCN1C(=O)[C@H](CCSC)NC(=O)[C@@H](N)Cc1ccccc1)C(=O)N[C@@H](CC(C)C)C(=O)N[C@@H](CO)C(=O)N[C@H]1CSSC[C@@H](C(=O)O)NC(=O)[C@H](CCCN=C(N)N)NC(=O)[C@H](CCCCN)NC(=O)[C@H](Cc2ccccc2)NC(=O)[C@H](CCCN=C(N)N)NC(=O)[C@H](CO)NC1=O [FMPILSCSRFKRC]

MIC [4]: 2 µM (≈ 4.88 µg/mL) | MIC [5]: 2 µM (≈ 4.88 µg/mL) | MIC [6]: 1 µM (≈ 2.44 µg/mL) | MIC [7]: 1 µM (≈ 2.44 µg/mL) | MIC [8]: 2 µM (≈ 4.88 µg/mL) | MIC [9]: 64 µM (≈ 156 µg/mL) | MIC (Bacillus subtilis): 4 µM (≈ 9.76 µg/mL)
Compound: CC[C@H](C)[C@H](NC(=O)CN)C(=O)NCC(=O)N[C@@H](CCCCN)C(=O)N[C@@H](Cc1ccccc1)C(=O)N[C@@H](CC(C)C)C(=O)N[C@@H](CCCCN)C(=O)N[C@@H](CCCCN)C(=O)N[C@@H](C)C(=O)N[C@@H](CCCCN)C(=O)N[C@@H](CCCCN)C(=O)NCC(=O)N[C@H](C(=O)NCC(=O)N[C@@H](C)C(=O)N[C@H](C(=O)N[C@@H](CC(C)C)C(=O)N[C@@H](CCCCN)C(=O)N[C@H](C(=O)N[C@@H](CC(C)C)C(=O)N[C@H](C(=O)N[C@H](C(=O)NCC(=O)N[C@@H](CC(C)C)C(=O)O)[C@@H](C)O)[C@@H](C)O)C(C)C)C(C)C)[C@@H](C)CC [GIGKFLKKAKKGIGAVLKVLTTGL]

MIC (Staphylococcus aureus): 8.32 µM (≈ 17.8 µg/mL) | MIC (Bacillus subtilis): 16.6 µM (≈ 35.6 µg/mL) | MIC (Candida albicans): 4.16 µM (≈ 8.89 µg/mL) | MIC (Escherichia coli): 16.6 µM (≈ 35.6 µg/mL)
Compound: CC[C@H](C)[C@@H]1NC(=O)[C@H](CC(C)C)NC(=O)[C@H](CCC(N)=O)NC(=O)[C@H](Cc2ccc(O)cc2)NC(=O)[C@H](C)NC(=O)[C@@H](NC(=O)[C@H](CCCCN)NC(=O)[C@@H](NC(=O)[C@H](CC(C)C)NC(=O)[C@@H](NC(=O)[C@H](Cc2ccccc2)NC(=O)[C@H](CC(C)C)NC(=O)CN)[C@@H](C)O)[C@@H](C)CC)CSSC[C@@H](C(=O)N[C@@H](CC(N)=O)C(=O)O)NC(=O)[C@H](C)NC(=O)[C@H](C(C)C)NC(=O)[C@H]([C@@H](C)O)NC(=O)[C@@H]2CCCN2C(=O)[C@H](C)NC1=O [GLFTLIKCAYQLIAPTVACN]

MIC (Staphylococcus aureus): 1.57 µM (≈ 2.6 µg/mL) | MIC (Bacillus subtilis): 0.394 µM (≈ 0.65 µg/mL) | MIC (Escherichia coli): 6.9 µM (≈ 11.4 µg/mL)
Compound: CC[C@H](C)[C@H](NC(=O)[C@H](CC(C)C)NC(=O)[C@H](C)NC(=O)[C@@H]1CCCN1C(=O)[C@H](CC(C)C)NC(=O)CN)C(=O)N[C@@H](CO)C(=O)N[C@@H](Cc1c[nH]c2ccccc12)C(=O)N[C@H](C(=O)N[C@@H](CCCCN)C(=O)N[C@@H](CCCN=C(N)N)C(=O)N[C@@H](CCCCN)C(=O)N[C@@H](CCCN=C(N)N)C(=O)N[C@@H](CC(C)C)C(N)=O)[C@@H](C)CC [GLPALISWIKRKRL]

MIC (Pseudomonas aeruginosa): 100 µM (≈ 125 µg/mL) | MIC (Staphylococcus aureus): 15.5 µM (≈ 19.4 µg/mL) | MIC (Escherichia coli B): 7 µM (≈ 8.78 µg/mL) | MIC (Bacillus subtilis 168): 3.5 µM (≈ 4.39 µg/mL)
Compound: CC[C@H](C)[C@H](NC(=O)[C@H](CC(C)C)NC(=O)[C@H](Cc1cnc[nH]1)NC(=O)CNC(=O)[C@H](CC(C)C)NC(=O)[C@@H](NC(=O)[C@H](CCCCN)NC(=O)[C@H](CO)NC(=O)[C@H](Cc1c[nH]c2ccccc12)NC(=O)[C@H](CCSC)NC(=O)CN)[C@@H](C)CC)C(N)=O [GMWSKILGHLI]

MIC (Staphylococcus aureus): 50.9 µM (≈ 90 µg/mL) | MIC (Bacillus subtilis): ≥ 38.2 µM | MIC (Escherichia coli): > 153 µM
Compound: CC[C@H](C)[C@H](NC(=O)[C@H](CC(C)C)NC(=O)[C@H](C)NC(=O)[C@@H]1CCCN1C(=O)[C@H](CO)NC(=O)CN)C(=O)N[C@@H](CO)C(=O)N[C@@H](Cc1c[nH]c2ccccc12)C(=O)N[C@H](C(=O)N[C@@H](CCCCN)C(=O)N[C@@H](CCCN=C(N)N)C(=O)N[C@@H](CCCCN)C(=O)N[C@@H](CCCN=C(N)N)C(=O)N[C@@H](CCC(N)=O)C(=O)N[C@@H](CCC(N)=O)C(N)=O)[C@@H](C)CC [GSPALISWIKRKRQQ]

MIC (Pseudomonas aeruginosa): 32 µM (≈ 66 µg/mL) | MIC (Klebsiella pneumoniae): 22.6 µM (≈ 46.7 µg/mL) | MIC [4]: 11.3 µM (≈ 23.3 µg/mL) | MIC [5]: 4 µM (≈ 8.25 µg/mL) | MIC (Acinetobacter baumannii): 22.6 µM (≈ 46.7 µg/mL) | MIC (Staphylococcus aureus): 2.83 µM (≈ 5.83 µg/mL) | MIC [7]: 2.83 µM (≈ 5.83 µg/mL) | MIC [2]: 1.41 µM (≈ 2.92 µg/mL) | MIC (Escherichia coli): 32 µM (≈ 66 µg/mL) | MIC [10]: 2 µM (≈ 4.12 µg/mL)
Compound: CC[C@H](C)[C@H](NC(=O)[C@@H](N)CCCCN)C(=O)N[C@@H](C)C(=O)N[C@@H](CC(C)C)C(=O)N[C@@H](CCCCN)C(=O)N[C@@H](C)C(=O)N[C@@H](CC(C)C)C(=O)N[C@@H](CCCCN)C(=O)N[C@@H](C)C(=O)N[C@@H](CC(C)C)C(=O)N[C@@H](CCCCN)C(=O)N[C@@H](C)C(=O)N[C@@H](CC(C)C)C(=O)NCC(=O)N[C@@H](CCCCN)C(=O)N[C@@H](C)C(=O)N[C@@H](CC(C)C)C(=O)N[C@@H](CCCCN)C(=O)N[C@@H](C)C(=O)N[C@@H](CC(C)C)C(N)=O [KIALKALKALKALGKALKAL]

MIC (Pseudomonas aeruginosa): 73.3 µM (≈ 109 µg/mL) | MIC (Staphylococcus aureus): 41.7 µM (≈ 61.8 µg/mL) | MIC (Escherichia coli B): 6.3 µM (≈ 9.33 µg/mL) | MIC (Bacillus subtilis 168): 2.1 µM (≈ 3.11 µg/mL)
Compound: CC[C@H](C)[C@H](NC(=O)[C@H](CC(C)C)NC(=O)[C@H](Cc1cnc[nH]1)NC(=O)CNC(=O)[C@H](CC(C)C)NC(=O)[C@@H](NC(=O)[C@H](CCCCN)NC(=O)[C@H](CO)NC(=O)[C@H](Cc1c[nH]c2ccccc12)NC(=O)[C@H](CCSC)NC(=O)[C@@H](N)CCCCN)[C@@H](C)CC)C(=O)N[C@@H](CCCN=C(N)N)C(N)=O [KMWSKILGHLIR]

MIC [11]: 2 µM and 4 µM | MIC [4]: 4 µM (≈ 11.7 µg/mL) | MIC [2]: 4 µM (≈ 11.7 µg/mL) | MIC [9]: 2 µM and 4 µM | MIC [12]: 2 µM and 4 µM | MIC [13]: 2 µM and 4 µM
Compound: CC(C)C[C@H](NC(=O)[C@H](CCCN=C(N)N)NC(=O)[C@H](CC(N)=O)NC(=O)[C@H](C)NC(=O)[C@H](CCCN=C(N)N)NC(=O)[C@H](CC(C)C)NC(=O)[C@H](Cc1c[nH]c2ccccc12)NC(=O)[C@H](CC(C)C)NC(=O)[C@H](CCCN=C(N)N)NC(=O)[C@H](CCCN=C(N)N)NC(=O)[C@H](CC(C)C)NC(=O)[C@H](CC(C)C)NC(=O)[C@H](CCCN=C(N)N)NC(=O)[C@H](CC(N)=O)NC(=O)[C@H](C)NC(=O)[C@H](CCCN=C(N)N)NC(=O)[C@H](CC(C)C)NC(=O)[C@H](Cc1c[nH]c2ccccc12)NC(=O)[C@H](CC(C)C)NC(=O)[C@H](CCCN=C(N)N)NC(=O)[C@H](CCCN=C(N)N)NC(=O)[C@@H](N)CC(C)C)C(N)=O [LRRLWLRANRLLRRLWLRANRL]

MIC [11]: 4 µM (≈ 7.14 µg/mL) | MIC [5]: 16 µM (≈ 28.5 µg/mL) | MIC [2]: 2 µM (≈ 3.57 µg/mL) | MIC (Escherichia coli UB1005): 4 µM (≈ 7.14 µg/mL) | MIC [12]: 8 µM (≈ 14.3 µg/mL) | MIC [13]: 16 µM (≈ 28.5 µg/mL)
Compound: CC(C)C[C@H](NC(=O)[C@H](CCCN=C(N)N)NC(=O)[C@H](Cc1c[nH]c2ccccc12)NC(=O)[C@H](CCCN=C(N)N)NC(=O)[C@@H](NC(=O)[C@H](CCCCN)NC(=O)[C@H](Cc1c[nH]c2ccccc12)NC(=O)[C@H](CCCN=C(N)N)NC(=O)[C@H](CC(C)C)NC(=O)[C@H](Cc1c[nH]c2ccccc12)NC(=O)[C@@H](N)CCCN=C(N)N)[C@@H](C)O)C(=O)N[C@@H](CCCCN)C(N)=O [RWLRWKTRWRLK]
